According to patent US10098849B2, “Anti-radical agents” (BASF SE, priority 2004, dated 2018):
Where two headings read alike, the source gives them in different places.

Key:
[1] = tested on: Primary human dermal fibroblasts (HDF-N2)
Experimental: Cell cultures: Primary human dermal fibroblasts (HDF-N2) are maintained in Dulbecco's culture media (DMEM; 1 g/l glucose), supplemented with 10% of fetal calf serum (FCS), 100 μg/ml of streptomycin sulphate, 100 μml of penicillin and 2 mM of L-glutamine, all of them from Biowhitaker, USA. Confluent cells are detached by incubation for 3 minutes in 0.055 trypsin/0.53 mM EDTA at 37° C. and plated at the established cell density (normally, 15×10^4 cells/cm^2).
Culture media of negative controls are containing 10 mMol NaCl or 0.05% DMSO or 0.05% ethanol, respectively. Positive control is a culture medium containing 0.02% of Sodium Lauryl Sulfate (SDS).
For comparative purposes, a further culture medium is used containing the compound of the formula

[2] = tested on: squalene peroxidation (squalenehydroperoxide) in skin lipids; assay: Efficacy against photooxidative stress in the skin induced by UVA irradiation (squalenehydroperoxide, HPLC); format: in vivo, human
Experimental: Anti-oxidant activity in vivo is measured via the capacity of a test compound to reduce radical induced lipid-peroxidation. • Persons tested: 10 individuals (4 female, 6 male); age range: 18 to 32 years • Body region tested: inner forearm • Application phase: once a day • Test period 7 days • Evaluation method: Determination of squalene • Determination of squalenehydroperoxide • Time of Evaluation: after UVA radiation • Evaluation: Descriptive statistics: average, median, minimum, maximum, variance, standard error, standard deviation; Multiple range test. Test Method
On the inner forearm of each subject symmetrically opposed areas are defined. The different formulations are applied once a day at a dose of about 2 mg of test solution/cm^2 for one week (application with a syringe for fine dosage: Omnifix®-F 1 ml; manufacturer: Braun Melsungen AG, Germany).
Two areas remain untreated.
The unique application of a solution of tocopherol in ethanol (0.2%) before irradiation serves as control.
Use of other cosmetic products is restricted on the test areas throughout the whole study. The areas (exception: one of the two untreated areas was not irradiated and can be attributed to environmental UVA radiation during the test) of the […] were then irradiated with UVA light (10 joule/cm^2). The lipids present on the test areas are harvested via a solvent extraction (4 ml ethanol for 2 minutes). The samples are first filtered through hydrophobic polypropylene filters to decant squames and other insoluble material, then dried under nitrogen at room temperature and taken up in 1 ml ethanol. Squalene (SQ) and squalenehydroperoxide (SQOOH) are then analysed by High Performance Liquid Chromatography (HPLC).
The fluorometer is used as a photon detector with the excitation source turned off.
This assay measures the hydroperoxy groups themselves and not indirect indices of lipid peroxidation such as conjugated dienes or breakdown products of lipid hydroperoxides. Chemiluminescence also detects ubiquinols. To confirm that any chemiluminescence observed in this assay was due to a hydroperoxide, not a hydroquinone, some samples were reduced with triphenyl phosphine and rerun.
Measuring data are centrally computerised after validity check and quality assurance. Evaluation is done using the software Statgraphics for Windows, Version 5.0—Manugistics, USA. Data are analysed by multiple range test (LSD: Least Significant Differences). The 0.05 level is selected as the point of minimal acceptance statistical significance.

[3] = 1% b.w. solution in ethanol, about 2 mg/cm^2 once a day for 7 days, inner forearm, UVA 10 joule/cm^2, 10 individuals
[4] = 5% stock solution in DMSO or ethanol diluted 1:500 in culture medium with 10% FCS, 48 h HDF cultures, more absorption = more viable cells

Row | Compound | Absorbance (OD450) after 24 h treatment ([1]; human, 24 h, 0.01 %) | average inhibition in % of peroxidation (SQOOH relative to untreated area) [2, 3] [%] | other results
1 | CC(c1cc(C(C)(C)C)cc(C(C)(C)C)c1O)c1cc(C(C)(C)C)cc(C(C)(C)C)c1O [AO4] | 1.0 | 28 | 
2 | CC(C)(C)c1cc(CCC(=O)Nc2ccc(S(=O)(=O)[O-])cc2)cc(C(C)(C)C)c1O.[Na+] [AO6] | 1.9 | 28 | 
3 | CC1(C)CC(O)CC(C)(C)N1O [AO8] |  | 21 | Absorbance (OD450) after 24 h treatment [1, 4]: 1.65
4 | Cc1c(C)c2c(c(C)c1O)CC[C@@](C)(CCC[C@H](C)CCC[C@H](C)CCCC(C)C)O2 [Control, tocopherol, reference compound] |  |  | average inhibition in % of peroxidation (SQOOH relative to untreated area) ([2]; unique application of tocopherol in ethanol (0.2%) before irradiation, UVA 10 joule/cm^2): 22.5%
5 | CCCCCCCCCCCCOS(=O)(=O)[O-].[Na+] [SDS, Sodium Lauryl Sulfate, reference compound] |  |  | Absorbance (OD450) after 24 h treatment ([1]; positive control, culture medium containing 0.02% Sodium Lauryl Sulfate, 48 h HDF cultures): 0.25
6 | CC(C)Cc1ccc(Oc2ccccc2)cc1O [comparison, reference compound] | 0.25 |  | 
7 | pentaerythritol-tetrakis(3-[3′,5′-di-tert.butyl-4′-hydroxyphenyl]-propionate) [AO7] |  |  | Absorbance (OD450) after 24 h treatment [1, 4]: 2.0; average inhibition in % of peroxidation (SQOOH relative to untreated area) ([2]; 0.1% b.w. solution in ethanol, about 2 mg/cm^2 once a day for 7 days, inner forearm, UVA 10 joule/cm^2, 10 individuals): 21.5%
